Experiments:
[1] = target: T1, human TRPM8 (Homo sapiens, UniProt Q7Z2W7); assay: In vitro human TRPM8 fluorescence calcium flux assay (recombinant CHO cells, Fluo4-AM, FDSS6000); format: cell-based; settings: recombinant CHO cells expressing human TRPM8; menthol-related EC50, normalized to 100 μM menthol
T1 construct: expressed in transfected cells; host or cells: CHO (p658 mammalian expression vector)
Method: (§1) In Vitro Pig and Human TRPM8 Fluorescence Calcium Flux Assays
(§2) For functional expression of TRPM8, the full-length cDNA encoding human (NM_024080) and pig (XM_001927892.1) TRPM8 sequences were subcloned into p658 and pcDNA5/FRT/TO mammalian expression vectors, respectively. Engineered recombinant CHO cell lines expressing human or pig TRPM8 were generated. Culture media was Ham-F12 with 10% FCS for both lines, and for the pig cell line only 400 μg/ml hygromycin B and 30 μg/mL blasticidin were added as selection antibiotics (all reagents were obtained from Invitrogen, Fisher Scientific). Cells were grown in culture flasks up to 80% confluence where they were harvested using accutase (Sigma, MO, USA) to detach the cells by enzymatic dissociation and either seeded directly into assay plates or cryopreserved for future use.
(§3) For calcium flux assays, cells were plated into clear base poly-D-lysine coated 384-well plates (BD Biosciences, NJ USA) at a density of 15,000 cells per well in appropriate culture medium and grown overnight. The following day, all medium was removed then the cells were incubated with 2 μM of Fluo4-AM Dye (Molecular Probes) prepared in complete HBSS assay buffer containing 20 mM HEPES, 0.1% BSA, and 2.5 mM probenecid at room temperature for one hour. Following incubation, plates were inserted into a FDSS6000 instrument (Hamamatsu, Photonics, Japan) instrument, where cells were challenged with compounds of the formula (at varying concentrations) and intracellular calcium was measured kinetically for 3 min after addition.
(§4) This protocol allowed the determination of an EC50 value, from the sixteen-point dose response data, for each compound of the formula tested. Maximal fluorescence intensity achieved upon addition of 100 μM menthol (stock solution prepared in ethanol from solid, Sigma-Aldrich) was exported from the FDSS and further analyzed using IDBS XLFit 5. Data were normalized to the average 100 μM menthol response (maximum control wells) included in each plate. The dose response curves from the average of wells for each data point were analyzed by using nonlinear regression of sigmoidal dose response (formula 205). Finally, the (menthol-related) EC50 values (Half maximal effective concentration) were calculated with the best-fit dose curve determined by IDBS XLFit 5 software.

[2] = target: T2, pig TRPM8 (Sus scrofa, UniProt F1SM15); assay: In vitro pig TRPM8 fluorescence calcium flux assay (recombinant CHO cells, Fluo4-AM, FDSS6000); format: cell-based; settings: recombinant CHO cells expressing pig TRPM8; menthol-related EC50, normalized to 100 μM menthol
T2 construct: expressed in transfected cells; host or cells: CHO (pcDNA5/FRT/TO vector; hygromycin B and blasticidin selection)
T2 sequence (F1SM15 1-1104): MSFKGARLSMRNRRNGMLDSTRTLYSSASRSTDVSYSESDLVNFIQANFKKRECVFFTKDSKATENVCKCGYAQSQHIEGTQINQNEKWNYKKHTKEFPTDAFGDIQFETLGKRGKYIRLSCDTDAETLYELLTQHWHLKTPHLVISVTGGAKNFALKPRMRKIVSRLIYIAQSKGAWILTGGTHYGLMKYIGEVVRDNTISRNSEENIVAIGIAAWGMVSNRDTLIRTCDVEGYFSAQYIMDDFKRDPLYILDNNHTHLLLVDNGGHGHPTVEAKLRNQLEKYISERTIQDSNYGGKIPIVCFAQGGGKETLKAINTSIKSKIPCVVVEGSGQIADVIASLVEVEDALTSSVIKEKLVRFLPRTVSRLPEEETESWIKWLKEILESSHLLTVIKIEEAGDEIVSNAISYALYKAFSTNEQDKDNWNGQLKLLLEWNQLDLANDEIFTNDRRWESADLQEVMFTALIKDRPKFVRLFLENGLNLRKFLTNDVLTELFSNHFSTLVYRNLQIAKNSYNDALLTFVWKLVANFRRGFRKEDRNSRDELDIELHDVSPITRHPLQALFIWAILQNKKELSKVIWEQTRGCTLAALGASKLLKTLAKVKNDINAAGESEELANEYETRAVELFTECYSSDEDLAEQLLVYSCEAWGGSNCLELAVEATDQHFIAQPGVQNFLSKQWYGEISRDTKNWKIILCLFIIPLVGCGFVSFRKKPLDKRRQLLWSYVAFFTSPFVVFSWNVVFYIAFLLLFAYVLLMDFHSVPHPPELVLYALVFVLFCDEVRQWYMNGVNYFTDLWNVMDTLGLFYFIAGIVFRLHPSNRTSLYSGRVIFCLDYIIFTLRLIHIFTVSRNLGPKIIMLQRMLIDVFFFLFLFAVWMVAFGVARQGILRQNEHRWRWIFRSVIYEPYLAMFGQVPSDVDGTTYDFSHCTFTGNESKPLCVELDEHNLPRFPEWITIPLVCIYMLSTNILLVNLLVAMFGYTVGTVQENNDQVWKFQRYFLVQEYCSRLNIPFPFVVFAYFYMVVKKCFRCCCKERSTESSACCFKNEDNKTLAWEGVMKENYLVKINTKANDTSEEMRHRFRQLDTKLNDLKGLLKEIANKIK
Method: as §1, §2, §3, §4

T1 sequence (Q7Z2W7 whole entry): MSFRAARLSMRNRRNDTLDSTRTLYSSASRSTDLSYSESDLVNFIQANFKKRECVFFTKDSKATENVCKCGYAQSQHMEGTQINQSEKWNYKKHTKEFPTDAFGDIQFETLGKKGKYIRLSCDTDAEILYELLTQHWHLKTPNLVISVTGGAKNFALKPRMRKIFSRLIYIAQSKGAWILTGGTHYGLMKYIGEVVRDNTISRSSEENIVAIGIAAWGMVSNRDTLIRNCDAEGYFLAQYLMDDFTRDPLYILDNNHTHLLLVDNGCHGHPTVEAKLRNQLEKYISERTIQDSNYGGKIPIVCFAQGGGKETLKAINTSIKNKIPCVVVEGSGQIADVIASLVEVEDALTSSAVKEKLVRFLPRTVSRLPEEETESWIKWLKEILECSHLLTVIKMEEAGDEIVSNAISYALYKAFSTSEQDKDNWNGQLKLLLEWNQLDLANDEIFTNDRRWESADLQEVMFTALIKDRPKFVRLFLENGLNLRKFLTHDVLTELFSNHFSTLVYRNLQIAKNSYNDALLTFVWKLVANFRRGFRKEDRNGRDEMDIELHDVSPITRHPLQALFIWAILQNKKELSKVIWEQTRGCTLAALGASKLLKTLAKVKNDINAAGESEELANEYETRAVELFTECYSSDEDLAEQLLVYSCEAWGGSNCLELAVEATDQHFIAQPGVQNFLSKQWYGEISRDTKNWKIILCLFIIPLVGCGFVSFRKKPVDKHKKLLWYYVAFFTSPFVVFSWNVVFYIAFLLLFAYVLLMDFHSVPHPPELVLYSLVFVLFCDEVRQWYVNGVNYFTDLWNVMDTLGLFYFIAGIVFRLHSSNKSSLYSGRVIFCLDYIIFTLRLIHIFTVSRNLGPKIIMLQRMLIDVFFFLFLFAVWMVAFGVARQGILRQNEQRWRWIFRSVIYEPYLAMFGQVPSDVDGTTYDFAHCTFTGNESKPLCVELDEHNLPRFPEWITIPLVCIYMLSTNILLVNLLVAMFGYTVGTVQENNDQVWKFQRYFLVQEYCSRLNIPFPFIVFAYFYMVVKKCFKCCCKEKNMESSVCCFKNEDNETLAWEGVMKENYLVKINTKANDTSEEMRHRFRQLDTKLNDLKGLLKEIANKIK

SMILES	EC50 [1]	EC50 [2]
CC(C)[C@@H]1CC[C@@H](C)C[C@@]1(O)C(=O)NC(CCO)c1cccc(O)c1 (stereo partly drawn) [Example 163, (1S,2S,5R)-1-hydroxy-N-[3-hydroxy-1-(3-hydroxyphenyl)propyl]-2-isopropyl-5-methyl-cyclohexanecarboxamide]	0.658 µM	0.94 µM
CC(C)[C@@H]1CC[C@@H](C)C[C@@]1(O)C(=O)NCC(=O)c1ccc(Cl)cc1Cl [Example 137, (1S,2S,5R)-N-[2-(2,4-dichlorophenyl)-2-oxo-ethyl]-1-hydroxy-2-isopropyl-5-methyl-cyclohexanecarboxamide]	0.125 µM	0.0416 µM
CC(C)[C@@H]1CC[C@@H](C)C[C@@]1(O)C(=O)NCCc1cccc(CCC(=O)O)c1 [Example 87, 3-(3-(2-((1S,2S,5R)-1-hydroxy-2-isopropyl-5-methylcyclohexane-1-carboxamido)ethyl)phenyl)propanoic acid]	0.982 µM	0.259 µM
CC(C)[C@@H]1CC[C@@H](C)C[C@@]1(O)C(=O)NCCc1cccc(C(=O)OC[C@H](C)O)c1 [Example 105, (S)-2-hydroxypropyl 3-(2-((1S,2S,5R)-1-hydroxy-2-isopropyl-5-methylcyclohexane-1-carboxamido)ethyl)benzoate]	0.0308 µM	0.0284 µM
COc1cccc(C(F)(F)CNC(=O)[C@]2(O)C[C@H](C)CC[C@H]2C(C)C)c1 [Example 188, (1S,2S,5R)—N-[2,2-difluoro-2-(3-methoxyphenyl)ethyl]-1-hydroxy-2-isopropyl-5-methyl-cyclohexanecarboxamide]	0.0762 µM	0.0241 µM
COc1ccc2c(c1)OCC2CNC(=O)[C@]1(O)C[C@H](C)CC[C@H]1C(C)C (stereo partly drawn) [Example 154, (1S,2S,5R)-1-hydroxy-2-isopropyl-N-[(6-methoxy-2,3-dihydrobenzofuran-3-yl)methyl]-5-methyl-cyclohexanecarboxamide]	0.085 µM	0.046 µM
CC(C)[C@@H]1CC[C@@H](C)C[C@@]1(O)C(=O)NCC1(O)CCc2ccccc21 (single isomer, unassigned) [Example 175]	0.043 µM	0.535 µM
CC(C)[C@@H]1CC[C@@H](C)C[C@@]1(O)C(=O)NCCc1c[nH]c2ccc(O)cc12 [Example 169, (1S,2S,5R)-1-hydroxy-N-[2-(5-hydroxy-1H-indol-3-yl)ethyl]-2-isopropyl-5-methyl-cyclohexanecarboxamide]	0.0209 µM	0.0274 µM
COc1ccc2c(c1)CCC2CNC(=O)[C@]1(O)C[C@H](C)CC[C@H]1C(C)C (stereo partly drawn) [Example 152, (1S,2S,5R)-1-hydroxy-2-isopropyl-N-[(5-methoxyindan-1-yl)methyl]-5-methyl-cyclohexanecarboxamide]	0.31 µM	0.047 µM
CC(C)[C@@H]1CC[C@@H](C)C[C@@]1(O)C(=O)NCCc1ccc(S(N)(=O)=O)cc1 [Example 118, (1S,2S,5R)-1-hydroxy-2-isopropyl-5-methyl-N-[2-(4-sulfamoylphenyl)ethyl]cyclohexanecarboxamide]	0.557 µM	0.264 µM
CC(C)[C@@H]1CC[C@@H](C)C[C@@]1(O)C(=O)NCC(NC(=O)[C@H](C)N)c1ccccc1 (single isomer, unassigned) [Example 181]	0.0225 µM	0.0614 µM
CC(C)[C@@H]1CC[C@@H](C)C[C@@]1(O)C(=O)NCC(O)(c1ccccc1)C(F)(F)F (single isomer, unassigned) [Example 83]	0.168 µM	0.136 µM
CC(C)[C@@H]1CC[C@@H](C)C[C@@]1(O)C(=O)NCC1OC(=O)c2ccccc21 (mixture of isomers) [Example 17, (1S,2S,5R)-1-hydroxy-2-isopropyl-5-methyl-N-(((1RS)-3-oxo-1,3-dihydroisobenzofuran-1-yl)methyl) cyclohexane-1-carboxamide]	0.41 µM	0.191 µM
COc1cccc(CCNC(=O)[C@]2(O)C[C@H](C)CC[C@H]2C(C)C)c1OC [Example 115, (1S,2S,5R)-N-[2-(2,3-dimethoxyphenyl)ethyl]-1-hydroxy-2-isopropyl-5-methyl-cyclohexanecarboxamide]	0.786 µM	0.362 µM

These reach a lower EC50 [1]. Values come first.

EC50 [1]	EC50 [2]	SMILES
0.0084 µM	0.0047 µM	CC(C)[C@@H]1CC[C@@H](C)C[C@@]1(O)C(=O)NCC(O)c1ccccc1F (stereo partly drawn) [Example 157, (1S,2S,5R)-N-[2-(2-fluorophenyl)-2-hydroxy-ethyl]-1-hydroxy-2-isopropyl-5-methyl-cyclohexanecarboxamide]
0.0021 µM	0.0011 µM	CC(C)[C@@H]1CC[C@@H](C)C[C@@]1(O)C(=O)NCC(=O)c1ccc(F)cc1 [Example 135, (1S,2S,5R)-N-[2-(4-fluorophenyl)-2-oxo-ethyl]-1-hydroxy-2-isopropyl-5-methyl-cyclohexanecarboxamide]
0.0027 µM	0.0012 µM	Cc1cccc(C(=O)CNC(=O)[C@]2(O)C[C@H](C)CC[C@H]2C(C)C)c1 [Example 141, (1S,2S,5R)-1-hydroxy-2-isopropyl-5-methyl-N-[2-(m-tolyl)-2-oxo-ethyl]cyclohexanecarboxamide]
0.0022 µM	0.0029 µM	CC(C)[C@@H]1CC[C@@H](C)C[C@@]1(O)C(=O)NCC(=O)c1ccc(O)c(O)c1 [Example 100, (1S,2S,5R)—N-(2-(3,4-dihydroxyphenyl)-2-oxoethyl)-1-hydroxy-2-isopropyl-5-methylcyclohexane-1-carboxamide]
0.0094 µM	0.0033 µM	CC(C)[C@@H]1CC[C@@H](C)C[C@@]1(O)C(=O)NCC(=O)c1ccccc1Cl [Example 140, (1S,2S,5R)-N-[2-(2-chlorophenyl)-2-oxo-ethyl]-1-hydroxy-2-isopropyl-5-methyl-cyclohexanecarboxamide]
0.0053 µM	0.0017 µM	CC(C)[C@@H]1CC[C@@H](C)C[C@@]1(O)C(=O)NCC(=O)c1cc(F)ccc1F [Example 139, (1S,2S,5R)-N-[2-(2,5-difluorophenyl)-2-oxo-ethyl]-1-hydroxy-2-isopropyl-5-methyl-cyclohexanecarboxamide]
0.0032 µM	0.0061 µM	CC(C)[C@@H]1CC[C@@H](C)C[C@@]1(O)C(=O)N[C@@H]1CCc2ccc(O)cc2C1 [Example 171, (1S,2S,5R)-1-hydroxy-N-[(2R)-7-hydroxytetralin-2-yl]-2-isopropyl-5-methyl-cyclohexanecarboxamide]
0.0034 µM	0.0013 µM	CC(C)[C@@H]1CC[C@@H](C)C[C@@]1(O)C(=O)NCC(=O)c1ccc(Cl)cc1 [Example 134, (1S,2S,5R)-N-[2-(4-chlorophenyl)-2-oxo-ethyl]-1-hydroxy-2-isopropyl-5-methyl-cyclohexanecarboxamide]
0.0016 µM	0.0023 µM	CC(C)[C@@H]1CC[C@@H](C)C[C@@]1(O)C(=O)NC[C@@H](NC(=O)[C@@H](C)N)c1ccccc1 [Example 62, (1S,2S,5R)—N—((S)-2-((R)-2-aminopropanamido)-2-phenylethyl)-1-hydroxy-2-isopropyl-5-methylcyclohexane-1-carboxamide]

From patent publication US20240124408A1 (Sanofi, priority 2020, published 2024)
